Data: patent publication US20130158112A1, “COMPOSITIONS AND METHODS FOR INHIBITING BETA AMYLOID SECRETION” (priority 2011, published 2013)
Like-named read-outs stand apart in the source and are kept apart here. Each block holds one compound with its values, some of them ahead of it.

Key:
[1] = test system: Aβ secretion; assay: Secreted total Aβ ELISA in conditioned media of H4βAPP695 wt cells; format: cell-based, human; conditions: for inhibition at 10 µM / inhibition at 30 µM: Homo sapiens, 24 h, H4βAPP695 wt cells; for inhibition at 10 µM: read-out: Total Aβ (% decrease) 10 μM Mean; for inhibition at 30 µM: read-out: Total Aβ (% decrease) 30 μM Mean; for Aβ secretion inhibiting activity (structure activity summary): in words
Description: (§1) H4βAPP695 wt cells, a human […] cell line stably transfected with a wtβAPP695 expression vector construct under the control of a CMV promoter (kindly provided by Dr. Chris Eckman from Mayo Clinic, Florida) were cultured as previously described. Twenty-four hours before drug treatment, the media was replaced with serum-free media. Cells were then incubated with drugs (dissolved in DMSO) or vehicle for 24 h for collection of conditioned media and cell lysates. For the PKC inhibitors experiment, three inhibitors were treated 30 min prior to drug challenge. Primary cortical neurons were prepared from embryonic day 18 APP and presenilin 1 (APPswe, PSEN1dE9) transgenic mice on the C57BL/6 genetic background (Jackson Laboratories, strain no. 5864) as previously described. THLE-3 human hepatoma cells (from ATCC) were plated in 24-well plates that were precoated with 10 μg/mL bovine serum albumin, 10 μg/mL fibronectin, and 30 μg/mL bovine type I collagen. The cells were grown in BEGM media (Clonetics) until confluent and treated with drugs at 20 μM for 24 h. This conditioned media was harvested, diluted 1:1 in serum-free medium, and incubated with H4βAPP695 wt cells for 24 h prior to analysis of secreted Aβ, which was compared to the effect of 10 μM drug treatments without prior incubation with the THLE-3 cells. Caco-2 cells (ATCC) were plated in 12-well plates with Transwell inserts (Costar) at 70000 cells per well and grown for 21 days. The media volume of the apical and basal chambers was 0.5 and 1.5 mL, respectively. Transepithelial resistance was measured in each well and found to be >160 Ω/cm^2. Drugs at 40 μM and 20 μg/mL of lucifer yellow were added in serum-free medium to the apical chamber. Four hours later, the basal chamber media was harvested and used to measure lucifer yellow fluorescence to confirm monolayer integrity as well as for treatment of H4βAPP695 wt cells for 24 h prior to analysis of secreted Aβ, which was compared to the effect of direct addition of 10 μM of the corresponding drug.

[2] = test system: Caco-2 cells; assay: Epithelial transcellular transport of drug activity through Caco-2 monolayers; format: in vitro ADME; conditions: for % theoretical activity: % of activity passing through Caco-2 monolayer; for inhibition at 10 µM / inhibition at up to 10 µM: Homo sapiens; for inhibition at 10 µM: Caco-2, 10 μM drug alone added directly to H4βAPP695 wt cells, read-out: transcellular transport No total Aβ (% decrease); for inhibition at up to 10 µM: Caco-2, 4 h, lower chamber media after 4 h on Caco-2 monolayer, 10 μM if in equilibrium, read-out: transcellular transport Yes total Aβ (% decrease)
Description: as §1
Monolayer integrity was confirmed by high levels of transcellular electrical resistance (>160 ohms/cm^2) and by transcellular impermeability to the fluorescent dye lucifer yellow. […] The concentration of each compound added to the upper chamber would lead to 10 μM in the lower chamber if equilibration was complete, and thus the activity of the lower chamber media was compared to the activity of 10 μM drug added directly to the H4βAPP695 wt cells. […] Compound 1 crossed the monolayer and the bottom chamber media led to a 27% reduction in Aβ production, yielding 38% of the theoretical activity. The compound with the most activity in the lower chamber was compound 48, which decreased Aβ production by 50%, with 71% of its theoretical activity. […] On the basis of the combined activity data from these last two studies, compound 48 was selected as the lead drug for in vivo study.

[3] = test system: H4βAPP695 wt cells; assay: Cytotoxicity by total cell protein content (BCA) of H4βAPP695 wt cells; conditions: cytotoxicity
[4] = test system: THLE-3 human hepatoma cells; assay: Drug activity persistence after incubation with THLE-3 hepatoma cells; format: in vitro ADME; conditions: for inhibition at 10 µM: Homo sapiens, THLE3, 24 h; for % remaining Activity: after 24 h incubation with hepatoma cells
Description: as §1
To screen for resistance to metabolism, 1 and eight noncytotoxic analogues with >50% Aβ reducing activity (compounds 27, 29, 48, 52, 53, 65, 73, and 76) were incubated at 20 μM for 24 h with or without THLE-3 human hepatoma cells.

[5] = 10 μM on H4 cells, without preincubation with hepatoma cells, read-out: hepatoma incubation No total Aβ (% decrease)
[6] = 20 μM preincubated 24 h with THLE-3 hepatoma cells, diluted to 10 μM on H4 cells, read-out: hepatoma incubation Yes total Aβ (% decrease)

- % theoretical activity [2]: 29.5%
- % remaining Activity [4]: 37%
Compound: COc1cccc(CSCCNC(=O)c2c(Cl)cccc2Cl)c1 [Compound 27, 2,6-dichloro-N-[2-(3-methoxy-benzylsulfanyl)-ethyl]-benzamide]
- inhibition at 10 µM [1]: > 50%
- inhibition at 30 µM [1]: 73.9%
- Aβ secretion inhibiting activity (structure activity summary) [1]: good activity
- inhibition at 10 µM [2]: 60.6%
- inhibition at up to 10 µM [2]: 17.9%
- Cell protein (% decrease) 10 μM Mean [3]: 8.4%
- Cell protein (% decrease) 30 μM Mean [3]: 13.2%
- inhibition at 10 µM [4, 5]: 60.6%
- inhibition at 10 µM [4, 6]: 22.2%

- melting point: 110 to 112 °C
- % theoretical activity [2]: 41.8%
- % remaining Activity [4]: 65%
Compound: O=C(NCCSCc1ccccc1Cl)c1c(Cl)cccc1Cl [Compound 76, 2,6-Dichloro-N-[2-(2-chloro-benzylsulfanyl)-ethyl]-benzamide]
- inhibition at 30 µM [1]: 80%
- Aβ secretion inhibiting activity (structure activity summary) [1]: retained activity
- inhibition at 10 µM [2]: 75.6%
- inhibition at up to 10 µM [2]: 32%
- Cell protein (% decrease) 10 μM Mean [3]: −0.5%
- Cell protein (% decrease) 30 μM Mean [3]: −11%
- inhibition at 10 µM [4, 5]: 75.6%
- inhibition at 10 µM [4, 6]: 49%

- melting point: 108 to 110 °C
- % theoretical activity [2]: 45.9%
Compound: COc1cccc(CSCCNC(=O)c2c(Cl)cccc2Cl)c1OC [Compound 52, 2,6-Dichloro-N-[2-(2,3-dimethoxy-benzylsulfanyl)-ethyl]-benzamide]
- inhibition at 10 µM [1]: > 50%
- inhibition at 30 µM [1]: 72.8%
- Aβ secretion inhibiting activity (structure activity summary) [1]: could be tolerated
- inhibition at 10 µM [2]: 57.8%
- inhibition at up to 10 µM [2]: 26.5%
- Cell protein (% decrease) 10 μM Mean [3]: −0.1%
- Cell protein (% decrease) 30 μM Mean [3]: 8.7%
- inhibition at 10 µM [4, 5]: 57.8%
- inhibition at 10 µM [4, 6]: 1.9%

- melting point: 75 to 78 °C
- % theoretical activity [2]: 1.3%
- % remaining Activity [4]: 47%
Compound: O=C(NCCSCc1cccc(I)c1)c1c(Cl)cccc1Cl [Compound 53, 2,6-Dichloro-N-[2-(3-iodo-benzylsulfanyl)-ethyl]-benzamide]
- inhibition at 30 µM [1]: 88.3%
- Aβ secretion inhibiting activity (structure activity summary) [1]: good activity
- inhibition at 10 µM [2]: 84.4%
- inhibition at up to 10 µM [2]: 1%
- Cell protein (% decrease) 10 μM Mean [3]: 9.2%
- Cell protein (% decrease) 30 μM Mean [3]: 19%
- hepatoma incubation Yes total Aβ (% decrease) ([4]; 20 μM preincubated 24 h with THLE-3 hepatoma cells, diluted to 10 μM on H4 cells): 40.0%
- inhibition at 10 µM [4, 5]: 84.4%
- inhibition at 10 µM [4, 6]: 40%

- melting point: 96 to 97 °C
- % theoretical activity [2]: 60.1%
- % remaining Activity [4]: 52%
Compound: O=C(NCCSCc1ccccc1)c1c(Cl)cccc1Cl [Compound 65, N-(2-Benzylsulfanyl-ethyl)-2,6-dichloro-benzamide]
- inhibition at 10 µM [1]: > 50%
- inhibition at 30 µM [1]: 58.6%
- Aβ secretion inhibiting activity (structure activity summary) [1]: retained activity
- inhibition at 10 µM [2]: 51.6%
- inhibition at up to 10 µM [2]: 31%
- Cell protein (% decrease) 10 μM Mean [3]: −1.1%
- Cell protein (% decrease) 30 μM Mean [3]: −0.7%
- inhibition at 10 µM [4, 5]: 51.6%
- inhibition at 10 µM [4, 6]: 27%

- % remaining Activity [4]: 41%
Compound: O=C(NCCSCc1cccc(O)c1)c1c(Cl)cccc1Cl [Compound 29, 2,6-dichloro-N-[2-(3-hydroxy-benzylsulfanyl)-ethyl]-benzamide]
- inhibition at 10 µM [1]: > 50%
- inhibition at 30 µM [1]: 67.7%
- Aβ secretion inhibiting activity (structure activity summary) [1]: good activity
- Cell protein (% decrease) 10 μM Mean [3]: 6.3%
- Cell protein (% decrease) 30 μM Mean [3]: 6.6%
- inhibition at 10 µM [4, 5]: 56.4%
- inhibition at 10 µM [4, 6]: 23.1%

- melting point: 93 to 94 °C
Compound: O=C(NCCSCc1cccc(Cl)c1)c1c(C(F)(F)F)cccc1C(F)(F)F [Compound 74, N-[2-(3-Chloro-benzylsulfanyl)-ethyl]-2,6-bis-trifluoromethyl-benzamide]
- inhibition at 10 µM [1]: 6.2%
- inhibition at 30 µM [1]: 13.5%
- Aβ secretion inhibiting activity (structure activity summary) [1]: not well tolerated
- Cell protein (% decrease) 10 μM Mean [3]: −4.2%
- Cell protein (% decrease) 30 μM Mean [3]: −0.4%

- melting point: 104 to 106 °C
Compound: O=C(NCCSCc1ccc(Cl)cc1)c1c(Cl)cccc1Cl [Compound 77, 2,6-Dichloro-N-[2-(4-chloro-benzylsulfanyl)-ethyl]-benzamide]
- inhibition at 10 µM [1]: 21.8%
- inhibition at 30 µM [1]: 36.5%
- Aβ secretion inhibiting activity (structure activity summary) [1]: loss of activity
- Cell protein (% decrease) 10 μM Mean [3]: −6.4%
- Cell protein (% decrease) 30 μM Mean [3]: 3%

- melting point: 123 to 125 °C
Compound: N#Cc1cccc(CSCCNC(=O)c2c(Cl)cccc2Cl)c1 [Compound 38, 2,6-Dichloro-N-[2-(3-cyano-benzylsulfanyl)-ethyl]-benzamide]
- inhibition at 10 µM [1]: 20%
- inhibition at 30 µM [1]: 38.7%
- Aβ secretion inhibiting activity (structure activity summary) [1]: did not yield good activity
- Cell protein (% decrease) 10 μM Mean [3]: −4.8%
- Cell protein (% decrease) 30 μM Mean [3]: 4.3%

- melting point: 41 to 43 °C
Compound: COc1cccc(CSCCNC(=O)c2c(OC)cccc2OC)c1 [Compound 34, 2,6-Dimethoxy-N-[2-(3-methoxy-benzylsulfanyl)-ethyl]-benzamide]
- inhibition at 10 µM [1]: 6.2%
- inhibition at 30 µM [1]: -0.6%
- Aβ secretion inhibiting activity (structure activity summary) [1]: not well tolerated
- Cell protein (% decrease) 10 μM Mean [3]: 0.5%
- Cell protein (% decrease) 30 μM Mean [3]: 3.9%

- melting point: 43 to 45 °C
Compound: CCOC(=O)c1cccc(CSCCNC(=O)c2c(Cl)cccc2Cl)c1 [Compound 43, 3-[2-(2,6-Dichloro-benzoylamino)-ethylsulfanylmethyl]-benzoic Acid Ethyl Ester]
- inhibition at 10 µM [1]: 3%
- inhibition at 30 µM [1]: 10.1%
- Aβ secretion inhibiting activity (structure activity summary) [1]: did not yield good activity
- Cell protein (% decrease) 10 μM Mean [3]: 5.8%
- Cell protein (% decrease) 30 μM Mean [3]: 5.4%

- melting point: 166 to 168 °C
Compound: N#Cc1c(Cl)cccc1CSCCNC(=O)c1c(Cl)cccc1Cl [Compound 62, 2,6-Dichloro-N-[2-(3-chloro-2-cyano-benzylsulfanyl)-ethyl]-benzamide]
- inhibition at 10 µM [1]: 48.7%
- inhibition at 30 µM [1]: 52.3%
- Cell protein (% decrease) 10 μM Mean [3]: 3.5%
- Cell protein (% decrease) 30 μM Mean [3]: 1.3%

- melting point: 90 to 91 °C
Compound: COc1cccc(OC)c1C(=O)NCCSCc1cccc(Cl)c1 [Compound 36, N-[2-(3-Chloro-benzylsulfanyl)-ethyl]-2,6-dimethoxy-benzamide]
- inhibition at 10 µM [1]: -13.1%
- inhibition at 30 µM [1]: 11.2%
- Aβ secretion inhibiting activity (structure activity summary) [1]: not well tolerated
- Cell protein (% decrease) 10 μM Mean [3]: 7.1%
- Cell protein (% decrease) 30 μM Mean [3]: −0.6%

- melting point: 55 to 56 °C
Compound: Nc1cccc(CSCCNC(=O)c2c(Cl)cccc2Cl)c1 [Compound 41, N-[2-(3-Amino-benzylsulfanyl)-ethyl]-2,6-dichloro-benzamide]
- inhibition at 10 µM [1]: 0.1%
- inhibition at 30 µM [1]: 17%
- Aβ secretion inhibiting activity (structure activity summary) [1]: did not yield good activity
- Cell protein (% decrease) 10 μM Mean [3]: 15.3%
- Cell protein (% decrease) 30 μM Mean [3]: 13.1%

- melting point: 55 to 57 °C
Compound: O=C(NCCSCc1cccc(Cl)c1)c1c(Br)cccc1Br [Compound 54, 2,6-Dibromo-N-[2-(3-chloro-benzylsulfanyl)-ethyl]-benzamide]
- inhibition at 30 µM [1]: 83.4%
- Aβ secretion inhibiting activity (structure activity summary) [1]: maintained activity
- Cell protein (% decrease) 10 μM Mean [3]: 6.7%
- Cell protein (% decrease) 30 μM Mean [3]: 20.8%
